# Results published in PubChem BioAssay (NCI).
#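 Tested at 5 concentrations; 48 h exposure; 96-well plates; endpoints linearly interpolated, else capped at highest concentration. Definition used: TGI = concentration required for complete inhibition of growth.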
# Key:
# Test in all cases: inhibition of tumour cell growth, NCI panel, 48 h
# DLD-1 colon = system: DLD-1 colon
# DMS 273 small cell lung = system: DMS 273 small cell lung
# KM20L2 colon = system: KM20L2 colon
# M19-MEL melanoma = system: M19-MEL melanoma
# SNB-78 CNS = system: SNB-78 CNS
# DMS 114 small cell lung = system: DMS 114 small cell lung
# RXF-631 renal = system: RXF-631 renal
# XF 498 CNS = system: XF 498 CNS
# HOP-18 NSCLC = system: HOP-18 NSCLC
SMILES,TGI (DLD-1 colon) [µM],TGI (DMS 273 small cell lung) [µM],TGI (KM20L2 colon) [µM],TGI (M19-MEL melanoma) [µM],TGI (SNB-78 CNS) [µM],TGI (DMS 114 small cell lung) [µM],TGI (RXF-631 renal) [µM],TGI (XF 498 CNS) [µM],TGI (HOP-18 NSCLC) [µM]
CC(=O)Nc1ccc(C(=O)NN2C(=O)C(Cl)C2c2ccccc2)cc1 (configuration not stated),> 100,> 100,> 100,> 100,> 100,,,,
COc1cc(C[S+]2CCCC2)c(SC)cc1C[S+]1CCCC1,> 100,,> 100,> 100,> 100,> 100,> 100,> 100,
COc1ccc(C2S/C(=C\c3ccccc3O)C(=O)N2NC(=O)Cc2ccccc2)cc1 (configuration not stated),> 100,> 100,,> 100,,> 100,,,> 100
C[C@]12C=CC(=O)C=C1CC[C@H]1[C@@H]3C[C@@H](O)[C@](O)(C(=O)CO)[C@@]3(C)C[C@H](O)[C@@]12F,> 100,> 100,> 100,> 100,> 100,> 100,> 100,> 100,
O=C(c1ccc(O)cc1)C1c2c3c(cc(O)c2C(c2ccc(O)cc2)C1c1cc(O)cc(O)c1)OC(c1ccc(O)cc1)C3c1cc2c(cc1O)OC(c1ccc(O)cc1)C2c1cc(O)cc(O)c1 (configuration not stated),> 12.5,> 12.5,> 12.5,> 12.5,,> 12.5,,,
CNC(=S)N(C)C(=S)Nn1c(=O)c(C)nn(C)c1=S,> 100,> 100,> 100,> 100,> 100,> 100,,,> 100
